Columns and labels:
NK1 receptor = NK1 receptor (Oryctolagus cuniculus, UniProt G1SEI7); assay: Rabbit Pulmonary Artery: NK1 in vitro functional assay (Test C); assay type: cell-based; settings: antagonism of agonist ASMSP, -log molar apparent dissociation constant KB
Protocol: Rabbit Pulmonary Artery: NK1 in vitro functional assay (Test C) […] Male New Zealand white rabbits are euthanized via i.v. injection into the ear vein with 60 mg/kg Nembutal (50 mg/mL). Preceding the Nembutal into the vein is Heparin (1000 units/mL) at 0.0025 mL/kg for anticoagulant purposes. The chest cavity is opened from the top of the rib cage to the sternum and the heart, lungs and part of the trachea are removed. The pulmonary arteries are isolated from the rest of the tissues and cut in half to serve as pairs. […] Responses are measured on a Grass polygraph via Grass FT-03 transducers. […] Percent inhibition is determined when a tested compound produces a statistically significant (p < 0.05) reduction of the total relaxation which is calculated using the total relaxation of the Papaverine as 100%. Potencies of the compounds are determined by calculating the apparent dissociation constants (KB) for each concentration tested using the standard equation: KB= [antagonist]/ (dose ratio - 1) [formula] where dose ratio = antilog[(agonist -log molar EC50 without compound) - (-log molar EC50 with compound)]. The KB values may be converted to the negative logarithms and expressed as -log molar KB (i.e. pKB). […] The EC50 values are converted to negative logarithms and expressed as -log molar EC50.

NK2 receptor = target: T1, NK2 receptor (Oryctolagus cuniculus, UniProt P79218); assay: Rabbit Pulmonary Artery: NK2 in vitro functional assay (Test D); assay type: cell-based; settings: antagonism of agonist BANK, -log molar apparent dissociation constant KB, read-out: NK2 pKb (Test D) (converted)
T1 construct: The pulmonary arteries are isolated from the rest of the tissues, then rubbed over an intimal surface to remove the endothelium; from tissue; host or cells: rabbit pulmonary artery rings (endothelium removed)
T1 sequence (P79218 1-384): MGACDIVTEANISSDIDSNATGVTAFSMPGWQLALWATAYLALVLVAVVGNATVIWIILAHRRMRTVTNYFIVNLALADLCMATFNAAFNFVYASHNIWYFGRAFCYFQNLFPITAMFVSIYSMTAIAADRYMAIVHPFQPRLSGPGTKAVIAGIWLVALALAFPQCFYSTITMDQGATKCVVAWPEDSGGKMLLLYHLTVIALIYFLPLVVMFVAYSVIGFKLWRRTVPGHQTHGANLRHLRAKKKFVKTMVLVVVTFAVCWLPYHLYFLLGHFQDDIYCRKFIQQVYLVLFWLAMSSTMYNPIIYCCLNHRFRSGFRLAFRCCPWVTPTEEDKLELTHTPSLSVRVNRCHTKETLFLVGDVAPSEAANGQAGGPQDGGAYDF
Protocol: The ability of a compound of the invention to antagonize the action of the agonist [β-ala8] […] Male New Zealand white rabbits are euthanized via i.v. injection into the ear vein with 60 mg/kg Nembutal (50 mg/mL). Preceding the Nembutal into the vein is Heparin (1000 units/mL) at 0.0025 mL/kg for anticoagulant purposes. The chest cavity is opened from the top of the rib cage to the sternum and a small incision is made into the heart so that the left and right pulmonary arteries can be cannulated with polyethylene tubing (PE260 and PE190 respectively). […] Responses are measured on a Grass polygraph via Grass FT-03 transducers. […]
Percent inhibition is determined when a tested compound produces a statistically significant (p < 0.05) reduction of the total contraction which is calculated using the total contraction of the BaCl2 as 100%. Potencies of the compounds are determined by calculating the apparent dissociation constants (KB) for each concentration tested using the standard equation: KB = [antagonist]/ (dose ratio - 1) [formula] where dose ratio = antilog[(agonist -log molar EC50 without compound) - (-log molar EC50 with compound)]. The KB values may be converted to the negative logarithms and expressed as -log molar KB (i.e. pKB). […] The EC50 values are converted to negative logarithms and expressed as -log molar EC50.

Sequence of NK1 receptor (G1SEI7 1-407): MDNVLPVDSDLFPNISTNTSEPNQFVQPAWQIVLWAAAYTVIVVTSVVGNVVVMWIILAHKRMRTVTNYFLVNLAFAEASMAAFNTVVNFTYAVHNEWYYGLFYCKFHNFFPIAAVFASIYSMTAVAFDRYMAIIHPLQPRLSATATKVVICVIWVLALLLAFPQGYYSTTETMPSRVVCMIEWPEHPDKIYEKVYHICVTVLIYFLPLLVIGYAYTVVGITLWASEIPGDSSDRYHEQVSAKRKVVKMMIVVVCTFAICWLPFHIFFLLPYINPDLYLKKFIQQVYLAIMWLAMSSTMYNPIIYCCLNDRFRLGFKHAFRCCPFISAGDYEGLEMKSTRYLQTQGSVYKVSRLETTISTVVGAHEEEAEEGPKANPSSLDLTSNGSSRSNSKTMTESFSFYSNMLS

| NK1 pKb (Test C) (NK1 receptor) | Kb (NK2 receptor) [nM] | Compound |
| --- | --- | --- |
| 9.5 | 50.1 | COc1c(C#N)cc2ccccc2c1C(=O)N(C)C[C@@H](CCN1CCC(c2ccccc2[S@+](C)[O-])CC1)c1ccc(Cl)c(Cl)c1.O=C(O)CC(O)(CC(=O)O)C(=O)O [Example 1, N-[(S)-2-(3,4-Dichlorophenyl)-4-[4-[(S)-2-methylsulfinylphenyl]-1-piperidinyl]butyl]-N-methyl-2-methoxy-3-cyano-1-naphthamide citrate] |
| 9.6 | 50.1 | CCc1c(C#N)cc2ccccc2c1C(=O)N(C)C[C@@H](CCN1CCC(c2ccccc2[S@+](C)[O-])CC1)c1ccc(Cl)c(Cl)c1.O=C(O)CC(O)(CC(=O)O)C(=O)O [Example 18, N-[(S)-2-(3,4-Dichlorophenyl)-4-[4-[(S)-2-methylsulfinylphenyl]-1-piperidinyl]butyl]-N-methyl-3-cyano-2-ethyl-1-naphthamide citrate] |
